Reference: US6001829A, “Fluoropropenyl oxadiazoles and the use thereof as pest control agents” (Bayer Aktiengesellschaft, priority 1995, dated 1999)
Where two headings read alike, the source gives them in different places.

Experiments:
[1] = system: Boophilus Microplus Resistent/SP-Resistent Parkhurst Strain; experiment: Test with Boophilus Microplus Resistent/SP-Resistent Parkhurst Strain; format: in vivo; details: 200 μg/animal; injected into the abdomen; adult females which have sucked themselves full
Protocol: Test with Boophilus Microplus Resistent/SP-Resistent Parkhurst Strain
Adult females which have sucked themselves full […]
The test is carried out in 5 replications. I μl of the solutions is injected into the abdomen, and the animals are transferred into dishes and kept in an air-conditioned room. The activity is determined via the inhibition of oviposition. 100% means that no tick has deposited eggs.

[2] = system: caterpillars of the owlet moth Spodoptera frugiperda; experiment: Spodoptera Test; format: in vivo; details: 168 h, 0.1% active compound, after 7 days, dipped cabbage leaves, read-out: kill
Protocol: (§1) Solvent: 7 parts by weight of dimethylformamide
(§2) Emulsifier: 1 part by weight of alkylaryl polyglycol ether
(§3) To produce a suitable preparation of active compound, 1 part by weight of active compound is mixed with the stated amount of solvent and the stated amount of emulsifier, and the concentrate is diluted with water to the desired concentration.
Cabbage leaves (Brassica oleracea) are treated by being dipped into the active compound preparation of the desired concentration and are populated with caterpillars of the owlet moth Spodoptera frugiperda) while the leaves are still moist.
(§4) After the desired period of time, the kill in % is determined. 100% means that all the caterpillars have been killed, 0% means that none of the caterpillars have been killed.

[3] = system: caterpillars of the diamond back moth (Plutella xylostella); experiment: Plutella Test; format: in vivo; details: 168 h, 0.1% active compound, after 7 days, dipped cabbage leaves, read-out: kill
Protocol: as §1, §2, §3
Cabbage leaves (Brassica oleracea) are treated by being dipped into the active compound preparation of the desired concentration and are populated with caterpillars of the diamond back moth (Plutella xylostella) while the leaves are still moist.
as §4

[4] = system: black bean aphid (Aphis fabae); experiment: Myzus Test (Duration of Activity after Spraying); format: in vivo; details: 0.1% active compound, dipped bean shoots, time not stated, read-out: kill
Protocol: Myzus Test (Duration of Activity after Spraying)
as §1, §2, §3
Bean shoots (Vicia faba) which are heavily infested by the black bean aphid (Aphis fabae) are treated by being dipped into the active compound preparation of the desired concentration.
After the desired period of time, the kill in % is determined. 100% means that all aphids have been killed, 0% means that none of the aphids have been killed.

[5] = system: larvae of the green rice leaf hopper (Nephotettix cincticeps); experiment: Nephotettix Test; format: in vivo; details: 144 h, read-out: kill
Protocol: as §1, §2, §3
Rice seedlings (Oryzae sativa) are treated by being dipped into the active compound preparation of the desired concentration and are populated with larvae of the green rice leaf hopper (Nephotettix cincticeps) while the seedlings are still moist.
After the desired period of time, the kill in % is determined. 100% means that all the leaf hoppers have been killed; 0% means that none of the leaf hoppers have been killed.

[6] = system: mustard beetle larvae (Phaedon cochleariae); experiment: Phaedon Larvae Test; format: in vivo; details: 168 h, 0.1% active compound, after 7 days, dipped cabbage leaves, read-out: kill
Protocol: as §1, §2, §3
Cabbage leaves (Brassica oleracea) are treated by being dipped into the active compound preparation of the desired concentration and are populated with mustard beetle larvae (Phaedon cochleariae) while the leaves are still moist.
After the desired period of time, the kill in % is determined. 100% means that all the beetle larvae have been killed, 0% means that none of the beetle larvae have been killed.

[7] = log p: n-octanol/water partition coefficient determined by reverse phase HPLC analysis using H2O/CH3CN; format: physicochemical
Excerpt: *log p: logarithm to base ten of the noctanol/water partition coefficient
determined by reverse phase HPLC analysis using H2 O/CH3 CN.

[8] = system: all larval stages of Lucilia cuprina (OP resistent); experiment: Test with Fly Larvae/Development-Inhibitory Action; format: in vivo; details: 1000 ppm active compound, on horse meat, larvicidal effect after 48 h
Protocol: Test with Fly Larvae/Development-Inhibitory Action
all larval stages of Lucilia cuprina (OP resistent)
[pupae and adults (without contact with the active
Solvent: 35 parts by weight of ethylene glycol monomethyl ether
35 parts by weight of nonylphenol polyglycol ether
To produce a suitable preparation, 3 parts by weight of the active compound are mixed with 7 parts by weight of the abovementioned solvent-emulsifier mixture, and the resulting emulsion concentrate is diluted with water to the concentration desired in each case.
For each concentration, 30 to 50 larvae are introduced into a test tube which contains horse meat (1 cm^3). 500 μl of the dilution to be tested are pipetted onto this horse meat. The test tubes are placed in plastic beakers whose bottom is covered with sea sand, and kept in an air-conditioned room (26° C.±1.5° C., 70%±10% relative humidity). The activity is examined (larvicidal action) after 24 hours and 48 hours. After emergence of the larvae (about 72 h), the test tubes are removed and perforated plastic lids are fitted onto the beakers. After 1.5 times the development time (hatching of control flies), the hatched flies and the pupae/cocoons are counted.
The activity criterion is the incidence of death in the treated larvae after 48 h (larvicidal effect), or the inhibition of hatching of adults from pupae or the inhibition of pupae formation. The criterion for the in vitro activity of a substance is the inhibition of the development of the […], or a development standstill before the adult stage. 100% larvicidal action means that all the larvae have been killed after 48 hours. 100% development-inhibitory action means that no adult flies have hatched.

[9] = system: Meloidogyne incognita; experiment: Critical Concentration Test/Nematodes; format: in vivo; details: 20 ppm active compound in soil; after four weeks; lettuce roots (root galls)
Protocol: Critical Concentration Test/Nematodes
Solvent: 4 parts by weight of acetone
as §2
To produce a suitable preparation of active compound, 1 part by weight of active compound is mixed with the stated amount of solvent, the stated amount of emulsifier is added and the concentrate is diluted with water to the desired concentration.
The active compound preparation is intimately mixed with soil which is heavily infested with the test nematodes. The active compound concentration in the preparation is immaterial, only the amount of active compound per unit volume of soil, which is given in ppm (=mg/l), matters. The treated soil is transferred into pots, lettuce seeds are sown, and the pots are kept at a greenhouse temperature of 25° C.
After four weeks, the lettuce roots are checked for infestation with nematodes (root galls) and the efficacy of the active compound in % is determined. The efficacy is 100% when infestation is avoided completely and 0% when the infestation level is just as high as in the control plants in untreated, but equally infested, soil.

chromatographic logP ([7]; pH 2)	chromatographic logP ([7]; pH 7.5)	Structure (SMILES)	mortality at 0.1 % strength [2] [%]	mortality at 0.1 % strength [3] [%]	mortality at 0.1 % strength [6] [%]	inhibition at 1000 ppm [8] [%]	other results
		Cc1ccc(-c2noc(CC(F)=C(F)F)n2)cc1 [Example 1, 3-(4-methylphenyl)-5-(2,3,3-trifluoroprop-2-enyl)-1,2,4-oxadiazole]	≥ 85	≥ 90	100		activity (inhibition of oviposition) [1]: 100%; mortality at 0.1 % strength [4]: 90%; mortality at 0.1 % strength [5]: 100%
		FC(F)=C(F)Cc1nnc(-c2ccc(Cl)cc2)o1 [Example 2, 2-(4-chlorophenyl)-5-(2,3,3-trifluoroprop-2-enyl)-1,3-4-oxadiazole]		≥ 90	100		mortality at 0.1 % strength [4]: 80%; mortality at 0.1 % strength [5]: 100%
		FC(F)=C(F)Cc1nc(CCl)no1 [Example 4]					chromatographic logP ([7]; pH not stated): 2.08
3.3		FC(F)=C(F)Cc1nc(-c2ccccc2Cl)no1 [Example 5]		≥ 90		100	
4.72		FC(F)=C(F)Cc1nc(-c2cc(Cl)cc(Cl)c2)no1 [Example 6]					
3.2		FC(F)=C(F)Cc1nc(-c2ccccc2)no1 [Example 7]	≥ 85	≥ 90	100	100	
	2.46	COc1ccc(-c2nnc(CC(F)=C(F)F)o2)cc1 [Example 8]		≥ 90			
	1.89	FC(F)=C(F)Cc1nnc(-c2ccco2)o1 [Example 9]					
	2.19	FC(F)=C(F)Cc1nnc(-c2cccs2)o1 [Example 10]					efficacy [9]: 100%

Structure (SMILES)	chromatographic logP ([7]; pH 2)	chromatographic logP ([7]; pH 7.5)	mortality at 0.1 % strength [2] [%]	mortality at 0.1 % strength [3] [%]	mortality at 0.1 % strength [6] [%]	inhibition at 1000 ppm [8] [%]	other results
FC(F)=C(F)Cc1nc(-c2c(Cl)cccc2Cl)no1 [Example 3]	3.44		≥ 85	≥ 90		100	mortality at 0.1 % strength ([5]; 0.1% active compound, after 6 days, dipped rice seedlings): 100%
